Our source for the IC50 values is US20250313535A1, “ALPHA 4 BETA 7 INTEGRIN MODULATORS AND USES THEREOF” (DICE MOLECULES SV, INC., priority 2022, published 2025).

For one assay, the target named is α4β7 integrin (Homo sapiens (Human), UniProt P13612+P26010). Description: Integrin Adhesion Assay: Protocol 4 (MAdCAM-coated plate, RPMI-8866 cells with stable LOF mutation of the ITGB1 gene). It counts as cell-based. The gist of the method: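 RPMI-8866 cells with CRISPR/Cas9 knockout of ITGB1 (2×10^6/mL) were added to MAdCAM-coated wells with compound (1% DMSO) in HEPES/NaCl buffer with 1 mM MnCl2, 0.1 mM CaCl2 and 1% BSA, then incubated 1 h at 37 °C. After four washes, adherent cells were quantified by CellTiter-Glo luminescence. Percent inhibition versus DMSO and control compound was fitted to 4-parameter curves.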
Chain of α4β7 integrin (P13612 34-1032): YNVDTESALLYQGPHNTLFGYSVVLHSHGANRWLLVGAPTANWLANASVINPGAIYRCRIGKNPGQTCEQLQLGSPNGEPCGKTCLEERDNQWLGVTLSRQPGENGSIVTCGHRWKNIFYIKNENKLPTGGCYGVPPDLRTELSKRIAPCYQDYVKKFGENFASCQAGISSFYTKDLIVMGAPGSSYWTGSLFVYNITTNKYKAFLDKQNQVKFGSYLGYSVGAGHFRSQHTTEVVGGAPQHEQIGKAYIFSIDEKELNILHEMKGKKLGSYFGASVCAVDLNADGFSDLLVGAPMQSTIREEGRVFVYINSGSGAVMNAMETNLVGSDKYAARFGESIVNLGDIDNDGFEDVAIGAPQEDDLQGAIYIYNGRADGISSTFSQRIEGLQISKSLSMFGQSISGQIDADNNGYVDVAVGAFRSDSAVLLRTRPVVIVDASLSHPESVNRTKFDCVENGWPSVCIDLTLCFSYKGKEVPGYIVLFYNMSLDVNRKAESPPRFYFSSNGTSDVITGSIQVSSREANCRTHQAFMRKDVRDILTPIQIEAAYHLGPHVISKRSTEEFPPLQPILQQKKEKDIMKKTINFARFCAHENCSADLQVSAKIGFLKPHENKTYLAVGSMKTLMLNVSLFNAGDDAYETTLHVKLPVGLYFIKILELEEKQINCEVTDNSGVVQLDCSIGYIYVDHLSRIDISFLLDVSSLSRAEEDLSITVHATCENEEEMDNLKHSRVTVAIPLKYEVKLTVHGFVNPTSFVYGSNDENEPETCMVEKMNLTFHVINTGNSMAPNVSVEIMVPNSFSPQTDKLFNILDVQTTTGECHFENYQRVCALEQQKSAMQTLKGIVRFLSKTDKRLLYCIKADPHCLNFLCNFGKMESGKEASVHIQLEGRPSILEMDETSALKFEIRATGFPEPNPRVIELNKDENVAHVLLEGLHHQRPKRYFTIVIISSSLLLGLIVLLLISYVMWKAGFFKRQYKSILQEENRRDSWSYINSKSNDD
Chain of α4β7 integrin (P26010 20-798): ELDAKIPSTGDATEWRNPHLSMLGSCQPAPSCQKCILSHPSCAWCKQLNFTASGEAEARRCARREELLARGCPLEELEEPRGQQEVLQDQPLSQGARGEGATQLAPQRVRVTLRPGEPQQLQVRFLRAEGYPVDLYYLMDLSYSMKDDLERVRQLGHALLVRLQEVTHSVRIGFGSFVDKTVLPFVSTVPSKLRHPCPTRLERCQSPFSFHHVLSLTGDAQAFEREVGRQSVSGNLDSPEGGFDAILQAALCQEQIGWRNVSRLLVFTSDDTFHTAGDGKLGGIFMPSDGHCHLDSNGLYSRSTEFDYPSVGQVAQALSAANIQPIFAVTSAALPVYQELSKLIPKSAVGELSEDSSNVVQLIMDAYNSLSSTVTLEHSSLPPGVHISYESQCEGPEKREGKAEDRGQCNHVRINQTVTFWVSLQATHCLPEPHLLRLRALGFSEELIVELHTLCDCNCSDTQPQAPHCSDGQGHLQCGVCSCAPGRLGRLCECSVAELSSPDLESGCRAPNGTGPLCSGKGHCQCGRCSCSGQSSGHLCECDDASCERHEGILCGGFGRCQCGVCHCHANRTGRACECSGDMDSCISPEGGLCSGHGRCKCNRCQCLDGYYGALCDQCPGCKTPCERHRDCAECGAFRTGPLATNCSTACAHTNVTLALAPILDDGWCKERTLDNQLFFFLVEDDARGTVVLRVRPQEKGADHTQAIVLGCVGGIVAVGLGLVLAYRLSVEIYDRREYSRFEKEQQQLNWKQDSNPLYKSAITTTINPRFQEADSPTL

In a further assay the target is α4β1 integrin (Homo sapiens (Human), UniProt P05556+P13612). Kind of assay: Integrin Adhesion Assay: Protocol 5 (VCAM-coated plate, RPMI-8866 cells with stable LOF mutation of the ITGB7 gene). It counts as cell-based. An outline of the steps: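 RPMI-8866 B cells with CRISPR/Cas9 ITGB7 knockout (clonal, verified by flow cytometry) adhered to VCAM-coated wells for 1 h at 37° C in HEPES/NaCl buffer with 1 mM MnCl2, 0.1 mM CaCl2, 1% BSA, 1% DMSO. Bound cells quantified by CellTiter-Glo luminescence after washing; % inhibition versus DMSO and control, 4-parameter fit.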
Chain of α4β1 integrin (P13612 34-1032): as the sequence (P13612 34-1032) above
Chain of α4β1 integrin (P05556 21-798): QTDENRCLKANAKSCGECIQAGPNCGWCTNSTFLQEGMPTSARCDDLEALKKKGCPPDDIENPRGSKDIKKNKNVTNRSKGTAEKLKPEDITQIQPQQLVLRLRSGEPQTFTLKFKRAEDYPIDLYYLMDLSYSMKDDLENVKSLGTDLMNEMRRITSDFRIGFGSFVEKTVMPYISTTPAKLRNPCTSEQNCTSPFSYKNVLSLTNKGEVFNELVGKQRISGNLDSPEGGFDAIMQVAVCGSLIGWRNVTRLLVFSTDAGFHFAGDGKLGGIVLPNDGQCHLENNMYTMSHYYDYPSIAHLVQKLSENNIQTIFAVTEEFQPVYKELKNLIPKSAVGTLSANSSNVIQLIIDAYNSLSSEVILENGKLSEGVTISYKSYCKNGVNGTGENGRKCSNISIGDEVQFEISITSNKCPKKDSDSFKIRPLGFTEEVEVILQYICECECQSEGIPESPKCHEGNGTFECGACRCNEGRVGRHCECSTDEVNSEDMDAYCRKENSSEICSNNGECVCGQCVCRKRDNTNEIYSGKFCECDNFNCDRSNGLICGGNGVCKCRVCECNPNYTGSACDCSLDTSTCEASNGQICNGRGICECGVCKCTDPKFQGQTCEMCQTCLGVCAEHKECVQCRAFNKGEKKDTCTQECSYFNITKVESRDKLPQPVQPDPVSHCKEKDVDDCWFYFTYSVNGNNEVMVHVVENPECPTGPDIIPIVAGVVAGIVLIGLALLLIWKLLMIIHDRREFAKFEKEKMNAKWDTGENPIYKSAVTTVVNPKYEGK

The mark [1] stands for this setting: Protocol 4, RPMI-8866 cells with LOF mutation of ITGB1, MAdCAM, read-out: Mean IC50 α4β7 KO.
[2] abbreviates: Protocol 5, RPMI-8866 cells with LOF mutation of ITGB7, VCAM, read-out: Mean IC50 α4β1 KO.
[3] abbreviates: RPMI-8866 cells with stable LOF mutation of the ITGB1 gene, read-out: Mean IC50 α4β7 KO^a.
Setting [4] is: RPMI-8866 cells with stable LOF mutation of the ITGB7 gene, read-out: Mean IC50 α4β1 KO^b.

As a reminder, the IC50 is the concentration that gives 50% inhibition.

Read-outs that look alike come from different tables or passages of the source.

On to `COc1ccc(CN2CCC(F)(F)CC2)c(C(F)(F)F)c1-c1cccc2c(C[C@H](NC(=O)c3c(C)cccc3F)C(=O)O)cccc12` [Compound 823], for which the results for the IC50 at α4β7 integrin (setting [1]) and at α4β1 integrin (setting [2]) were 100 to 1000 nM and > 1000 nM, respectively.
Regarding `COc1ccnc(OC)c1-c1cccc2c(C[C@H](NC(=O)c3c(C)cccc3F)C(=O)O)cccc12` [Compound 527], the half-inhibitory concentration (IC50) on α4β7 integrin (setting [3]) was 10 to 100 nM; at α4β1 integrin (setting [4]), > 1000 nM.
As for `COc1ccc(CN2CCN(C)C(C)(C)C2)c(OC)c1-c1cccc2c(C[C@H](NC(=O)C3(C(F)(F)F)CCN(CC(F)(F)F)CC3)C(=O)O)cccc12` [Compound 810], the IC50 at α4β7 integrin (setting [1]) is < 10 nM; on α4β1 integrin (setting [2]), 100 to 1000 nM.
Consider `COc1ccc(CN(C)C)c(OC(F)(F)F)c1-c1cccc2c(C[C@H](NC(=O)c3c(C)cccc3F)C(=O)O)cccc12` [Compound 703], for which the results for the IC50 at α4β7 integrin (setting [1]) and at α4β1 integrin (setting [2]) were < 10 nM and 100 to 1000 nM, respectively.
As to `O=C(O)[C@H](Cc1cccc2c(-c3ncc(CN4CCN(C5CC5)CC4)cc3C3CC3)cccc12)NC(=O)C1(C(F)(F)F)CCN(CC(F)(F)F)CC1` [Compound 948], the values for the half-inhibitory concentration (IC50) on α4β7 integrin (setting [1]) and at α4β1 integrin (setting [2]) were < 10 nM and 100 to 1000 nM, respectively.
As for `O=C(O)[C@H](Cc1cccc2c(-c3ncc(CN4CCCCC4)cc3C3CC3)cccc12)NC(=O)C1(C(F)(F)F)CCN(CC(F)F)CC1` [Compound 898], the figures for the IC50 on α4β7 integrin (setting [1]) and on α4β1 integrin (setting [2]) were < 10 nM and > 1000 nM, respectively.
For `COc1ccc(CN2CCN(CC(C)C)CC2)c(OC)c1-c1cccc2c(C[C@H](NC(=O)C3(C(F)(F)F)CCN(CC(F)(F)F)CC3)C(=O)O)cccc12` [Compound 805] the same measures were < 10 nM and 100 to 1000 nM.
As to `CC1OCC1N1CCC(C(=O)N[C@@H](Cc2cccc3c(-c4c(C(F)(F)F)c5ccccc5n(C)c4=O)cccc23)C(=O)O)(C(F)(F)F)CC1` (stereo partly drawn) [Compound 510], the IC50 was < 10 nM at α4β7 integrin (setting [3]) and 100 to 1000 nM on α4β1 integrin (setting [4]).
As to `O=C(O)[C@H](Cc1cccc2c(-c3ncc(CN4CCN(C5CC5)CC4)cc3C3CC3)cccc12)NC(=O)C1(C(F)(F)F)CCN(CC(F)F)CC1` [Compound 952], the IC50 was < 10 nM on α4β7 integrin (setting [1]) and 100 to 1000 nM on α4β1 integrin (setting [2]).
For `O=C(O)[C@H](Cc1cccc2c(-c3ncccc3CCN3CCCCC3)cccc12)NC(=O)C1(C(F)(F)F)CCN(CC(F)(F)F)CC1` [Compound 965] the same measures were 10 to 100 nM and > 1000 nM.
For `O=C(O)[C@H](Cc1cccc2c(-c3cc(C(F)(F)F)c(CN4CCCCC4)cn3)cccc12)NC(=O)C1(C(F)(F)F)CCN(CC(F)(F)F)CC1` [Compound 891], the IC50 on α4β7 integrin (setting [1]) is 100 to 1000 nM; at α4β1 integrin (setting [2]), > 1000 nM.
`O=C(O)[C@H](Cc1cccc2c(-c3nccc4c(CN5CCCCC5)cccc34)cccc12)NC(=O)C1(C(F)(F)F)CCN([C@H]2COCC2(F)F)CC1` [Compound 641]: the IC50 at α4β7 integrin (setting [3]) was < 10 nM; at α4β1 integrin (setting [4]) it was 100 to 1000 nM.
In the case of `COc1ccc(CN2CCC(c3ccccc3)CC2)c(OC)c1-c1cccc2c(C[C@H](NC(=O)c3c(C)cccc3F)C(=O)O)cccc12` [Compound 570], the IC50 on α4β7 integrin (setting [3]) is < 10 nM; at α4β1 integrin (setting [4]), 100 to 1000 nM.
Regarding `Cn1c(=O)c(-c2cccc3c(C[C@H](NC(=O)c4c(F)cccc4F)C(=O)O)cccc23)c(C(F)(F)F)c2cc(CO)ccc21` [Compound 1043], the results for the IC50 on α4β7 integrin (setting [1]) and on α4β1 integrin (setting [2]) were 10 to 100 nM and > 1000 nM, respectively.
For `COc1cc(CN2CCC(C(F)(F)F)CC2)cnc1-c1cccc2c(C[C@H](NC(=O)c3c(C)cccc3F)C(=O)O)cccc12` [Compound 996] the same measures were 10 to 100 nM and > 1000 nM.
The matching figures for `COc1ccc(CN2CCCC2)c(OC)c1-c1cccc2c(C[C@H](NC(=O)C3(C(F)(F)F)CCN(CC(F)(F)F)CC3)C(=O)O)cccc12` [Compound 782]: < 10 nM and 100 to 1000 nM.
As to `COc1cccc(CN2CCCCC2)c1-c1cccc2c(C[C@H](NC(=O)c3c(F)ccc(F)c3C)C(=O)O)cccc12` [Compound 543], the IC50 on α4β7 integrin (setting [3]) was < 10 nM; at α4β1 integrin (setting [4]), > 1000 nM.
For `Cc1cc(CN2CCC(C(F)(F)F)CC2)cnc1-c1cccc2c(C[C@H](NC(=O)C3(C(F)(F)F)CCN(C4COC4)CC3)C(=O)O)cccc12` [Compound 900], the IC50 at α4β7 integrin (setting [1]) is < 10 nM; at α4β1 integrin (setting [2]) it was > 1000 nM.
`COc1ccc(CN(C)C)c(C(F)(F)F)c1-c1cccc2c(C[C@H](NC(=O)C3(C(F)(F)F)CCN(CC(F)(F)F)CC3)C(=O)O)cccc12` [Compound 563]: the IC50 at α4β7 integrin (setting [3]) is < 10 nM; on α4β1 integrin (setting [4]), 100 to 1000 nM.
For `Cn1c(=O)c(-c2cccc3c(C[C@H](NC(=O)C4(C(F)(F)F)CCN(C5CCOCC5)CC4)C(=O)O)cccc23)c(C(F)(F)F)c2ccccc21` [Compound 504] the same measures were 10 to 100 nM and > 1000 nM.
As for `O=C(O)[C@H](Cc1cccc2c(-c3ncc(CN4CCC4)c4ccccc34)cccc12)NC(=O)C1(C(F)(F)F)CCN(CC(F)F)CC1` [Compound 920], the IC50 at α4β7 integrin (setting [1]) was < 10 nM; at α4β1 integrin (setting [2]), > 1000 nM.
Consider `COc1ccc(CCN(C)C)c(OC)c1-c1cccc2c(C[C@H](NC(=O)C3(C(F)(F)F)CCN(CC(F)(F)F)CC3)C(=O)O)cccc12` [Compound 468], for which the IC50 was < 10 nM on α4β7 integrin (setting [3]) and 100 to 1000 nM on α4β1 integrin (setting [4]).
`O=C(O)[C@H](Cc1cccc2c(-c3ncc(CN4CCN(C5CC5)CC4)c4ccccc34)cccc12)NC(=O)C1(C(F)(F)F)CCN(CC(F)F)CC1` [Compound 901]: the half-maximal inhibitory concentration (IC50) at α4β7 integrin (setting [1]) was < 10 nM; on α4β1 integrin (setting [2]) it was 100 to 1000 nM.
The matching figures for `COc1cccc(CN2CCCC(F)C2)c1-c1cccc2c(C[C@H](NC(=O)C3(C(F)(F)F)CCN(CC(F)(F)F)CC3)C(=O)O)cccc12` (stereo partly drawn) [Compound 828]: 10 to 100 nM and > 1000 nM.
Take `O=C(O)[C@H](Cc1cccc2c(-c3ncc(C(=O)N4CCN(C5CC5)CC4)c4ccccc34)cccc12)NC(=O)C1(C(F)(F)F)CCN(CC(F)(F)F)CC1` [Compound 762]: the IC50 on α4β7 integrin (setting [1]) is 10 to 100 nM; on α4β1 integrin (setting [2]), > 1000 nM.
In the case of `Cn1c(=O)c(-c2cccc3c(C[C@H](NC(=O)C4(C(F)(F)F)CCN(C(c5ccccc5)C(F)(F)F)CC4)C(=O)O)cccc23)c(C(F)(F)F)c2ccccc21` (stereo partly drawn) [Compound 516], the IC50 at α4β7 integrin (setting [3]) and at α4β1 integrin (setting [4]) was > 1000 nM in each case.
Regarding `CN(C)CCc1ccc2c(c1)c(C(F)(F)F)c(-c1cccc3c(C[C@H](NC(=O)c4c(F)cccc4CN4CCC(F)(F)CC4)C(=O)O)cccc13)c(=O)n2C` [Compound 711], the figures for the IC50 at α4β7 integrin (setting [1]) and on α4β1 integrin (setting [2]) were < 10 nM and 100 to 1000 nM, respectively.
`COc1c(CN2CCCCC2)ccnc1-c1cccc2c(C[C@H](NC(=O)c3c(C)cccc3F)C(=O)O)cccc12` [Compound 1020]: the IC50 on α4β7 integrin (setting [1]) was 10 to 100 nM; on α4β1 integrin (setting [2]) it was > 1000 nM.
The matching figures for `O=C(O)[C@H](Cc1cccc2c(-c3nccc4cccc(CCN5CCCCC5)c34)cccc12)NC(=O)C1(C(F)(F)F)CCN(CC(F)(F)F)CC1` [Compound 982]: < 10 nM and > 1000 nM.
The matching figures for `C[C@@H]1CN(Cc2cnc(-c3cccc4c(C[C@H](NC(=O)C5(C(F)(F)F)CCN(CC(F)(F)F)CC5)C(=O)O)cccc34)c3ccccc23)C[C@H](C)N1` [Compound 893]: < 10 nM and 100 to 1000 nM.
For `COc1ccc2cc(CN3CCCCC3)cnc2c1-c1cccc2c(C[C@H](NC(=O)C3(C(F)(F)F)CCN(CC(F)(F)F)CC3)C(=O)O)cccc12` [Compound 733] the same measures were 10 to 100 nM and 100 to 1000 nM.
Regarding `Cc1cccc(F)c1C(=O)N[C@@H](Cc1cccc2c(-c3c(C(F)(F)F)c4cc(CCN5CCCC5)ccc4n(C)c3=O)cccc12)C(=O)O` [Compound 713], the IC50 is < 10 nM on α4β7 integrin (setting [1]) and 100 to 1000 nM on α4β1 integrin (setting [2]).
The matching figures for `CC[C@H]1CCCCN1Cc1cnc(-c2cccc3c(C[C@H](NC(=O)C4(C(F)(F)F)CCN(CC(F)(F)F)CC4)C(=O)O)cccc23)c2ccccc12` [Compound 929]: < 10 nM and 100 to 1000 nM.
The matching figures for `COc1ccc2c(c1-c1cccc3c(C[C@H](NC(=O)c4c(C)cccc4F)C(=O)O)cccc13)CCN(C)C2` [Compound 998]: < 10 nM and 100 to 1000 nM.
Consider `COc1cccc(F)c1C(=O)N[C@@H](Cc1cccc2c(-c3c(CN4CCCCC4)cccc3OC)cccc12)C(=O)O` [Compound 675], for which the IC50 is < 10 nM on α4β7 integrin (setting [3]) and 100 to 1000 nM at α4β1 integrin (setting [4]).
For `O=C(O)[C@H](Cc1cccc2c(-c3nccc4ccc(CCCN5CCC(F)(F)CC5)cc34)cccc12)NC(=O)C1(C(F)(F)F)CCN(CC(F)(F)F)CC1` [Compound 539] the same measures were < 10 nM and > 1000 nM.
Turning to `O=C(O)[C@H](Cc1cccc2c(-c3nccc4ccc(CCCN5CCCCC5)cc34)cccc12)NC(=O)C1(C(F)(F)F)CCN(CC(F)(F)F)CC1` [Compound 725], the IC50 was < 10 nM at α4β7 integrin (setting [1]) and > 1000 nM at α4β1 integrin (setting [2]).
The matching figures for `COc1ccc(CN2CCCC(F)(F)C2)c(OC)c1-c1cccc2c(C[C@H](NC(=O)C3(C(F)(F)F)CCN(CC(F)(F)F)CC3)C(=O)O)cccc12` [Compound 825]: 10 to 100 nM and > 1000 nM.
`COc1ccc(CN2CCCCC2)c(OC)c1-c1cccc2c(C[C@H](NC(=O)c3c(F)cccc3Br)C(=O)O)cccc12` [Compound 665]: the half-inhibitory concentration (IC50) at α4β7 integrin (setting [3]) was < 10 nM; at α4β1 integrin (setting [4]) it was 100 to 1000 nM.
